The values that follow come from PubChem BioAssay AID330 (DTP/NCI, 2004).

Where “and” joins values, the source holds several entries; their conditions need not be identical. Equal entries are not always repeated. Toxic doses and inconclusive results are not listed.

The assay has as its system P388 leukemia ip, CD2F1 mice, survival T/C. The experiment in a line: NCI In Vivo Anticancer Drug Screen. Data for tumor model P388 Leukemia (intraperitoneal) in CD2F1 (CDF1) mice. The note with it: endpoint: median survival time, higher = longer survival. In a few lines:
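Mice carrying the transplanted tumor received test compound or vehicle. Survival was recorded in each group, and the value is the treated-group measurement divided by that of the vehicle-treated control group.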

[1] abbreviates: dose: 25.0 mg/kg/injection, schedule: Q01DX005 (ip), vehicle: Klucel (hydroxypropylcellulose) (HPC).
Where [2] appears, read: dose: 50.0 mg/kg/injection, schedule: Q01DX005 (ip), vehicle: Klucel (hydroxypropylcellulose) (HPC).
The mark [3] stands for this setting: dose: 50.0 mg/kg/injection, schedule: Q01DX005 (ip), vehicle: saline.
Where [4] appears, read: dose: 50.0 mg/kg/injection, schedule: Q04DX003 (ip), vehicle: saline with Tween-80.
[5] abbreviates: dose: 100.0 mg/kg/injection, schedule: Q04DX003 (ip), vehicle: saline with Tween-80.
Setting [6] is: dose: 50.0 mg/kg/injection, schedule: Q01DX001 (ip), vehicle: Klucel (hydroxypropylcellulose) (HPC).
The mark [7] stands for this setting: dose: 100.0 mg/kg/injection, schedule: Q01DX001 (ip), vehicle: Klucel (hydroxypropylcellulose) (HPC).
Setting [8] is: dose: 50.0 mg/kg/injection, schedule: Q01DX009 (ip), vehicle: Klucel (hydroxypropylcellulose) (HPC).
The mark [9] stands for this setting: dose: 100.0 mg/kg/injection, schedule: Q01DX009 (ip), vehicle: Klucel (hydroxypropylcellulose) (HPC).
Where [10] appears, read: dose: 200.0 mg/kg/injection, schedule: Q01DX009 (ip), vehicle: Klucel (hydroxypropylcellulose) (HPC).
Setting [11] is: dose: 50.0 mg/kg/injection, schedule: Q01DX009 (ip), vehicle: saline with Tween-80.
[12] abbreviates: dose: 100.0 mg/kg/injection, schedule: Q01DX009 (ip), vehicle: saline with Tween-80.
The mark [13] stands for this setting: dose: 200.0 mg/kg/injection, schedule: Q01DX009 (ip), vehicle: saline with Tween-80.
Where [14] appears, read: dose: 100.0 mg/kg/injection, schedule: Q01DX005 (ip), vehicle: Klucel (hydroxypropylcellulose) (HPC).
Setting [15] is: dose: 200.0 mg/kg/injection, schedule: Q01DX005 (ip), vehicle: Klucel (hydroxypropylcellulose) (HPC).

Turning to `C=C(Cl)C(=NC(C)(C)C)N(CC)CC`, the T/C runs as follows: (dose: 12.5 mg/kg/injection, schedule: Q01DX005 (ip), vehicle: Klucel (hydroxypropylcellulose) (HPC)) 104 % of control; under setting [1], 104 % of control; under setting [2], 107 % of control and 110 % of control.
For `CC(=O)NC(CC(C)C(C)=O)C(=O)O` (stereo unspecified), the T/C was 92 % of control under setting [3]; 95 % of control (dose: 100.0 mg/kg/injection, schedule: Q01DX005 (ip), vehicle: saline); 92 % of control (dose: 200.0 mg/kg/injection, schedule: Q01DX005 (ip), vehicle: saline).
With `COc1ccc(OC)c(C2N(Cc3ccccc3N(C)C)CCCN2Cc2ccccc2N(C)C)c1`, the T/C reads like this: under setting [4], 91 % of control; under setting [5], 87 % of control.
Take `CCC1=C(NCc2ccccc2)COC1=O`: the T/C by setting is: under setting [6], 100 % of control; under setting [7], 101 % of control; (dose: 200.0 mg/kg/injection, schedule: Q01DX001 (ip), vehicle: Klucel (hydroxypropylcellulose) (HPC)) 100 % of control.
`CCC[CH2][Sn]([CH2]CCC)([CH2]CCC)[CH2]CC[N+](C)(C)C`: the T/C (dose: 0.78 mg/kg/injection, schedule: Q01DX009 (ip), vehicle: saline) was 105 % of control; the T/C (dose: 1.56 mg/kg/injection, schedule: Q01DX009 (ip), vehicle: saline) was 105 % of control; the T/C (dose: 3.12 mg/kg/injection, schedule: Q01DX009 (ip), vehicle: saline) is 101 % of control.
For `CC(C)(O)c1ccccc1Sc1ccccc1C(C)(C)O`, the T/C (dose: 100.0 mg/kg/injection, schedule: Q01DX001 (ip), vehicle: saline with Tween-80) is 102 % of control; the T/C (dose: 200.0 mg/kg/injection, schedule: Q01DX001 (ip), vehicle: saline with Tween-80) was 103 % of control; the T/C (dose: 400.0 mg/kg/injection, schedule: Q01DX001 (ip), vehicle: saline with Tween-80) was 95 % of control.
`CC(/C=N/N=C1\C(=O)Nc2ccccc21)=C\c1ccccc1`: the T/C was 95 % of control under setting [8], 94 % of control under setting [9] and 100 % of control under setting [10].
As for `Cc1ccc(S(=O)(=O)OCC2OC(OC3(CO)OC(COS(=O)(=O)c4ccc(C)cc4)C(O)C3O)C(O)C(O)C2O)cc1` (stereo unspecified), the T/C by setting is: under setting [11], 100 % of control; under setting [12], 98 % of control; under setting [13], 99 % of control.
As to `CCOC(=O)C1(O)C(=O)ON=C1c1ccccc1` (stereo unspecified), the T/C by setting is: under setting [2], 100 % of control; under setting [14], 104 % of control; under setting [15], 107 % of control.
On to `CC(CCC(=O)O)(c1ccc(O)cc1)c1ccc(O)cc1`, for which the T/C runs as follows: (dose: 100.0 mg/kg/injection, schedule: Q04DX003 (ip), vehicle: other) 95 % of control; (dose: 200.0 mg/kg/injection, schedule: Q04DX003 (ip), vehicle: other) 95 % of control; (dose: 400.0 mg/kg/injection, schedule: Q04DX003 (ip), vehicle: other) 90 % of control.
As to `CN(C)c1cc(C(=O)O)nc(C(=O)O)c1`, the T/C (dose: 25.0 mg/kg/injection, schedule: Q01DX001 (ip), vehicle: Klucel (hydroxypropylcellulose) (HPC)) is 101 % of control; the T/C under setting [6] is 107 % of control; the T/C under setting [7] was 107 % of control and 87 % of control.
Consider `CN(C)C[N+](C)(C)Cc1ccc(C[N+](C)(C)C[N+](C)(C)Cc2ccc(CCl)cc2)cc1`, for which the T/C runs as follows: (dose: 0.19 mg/kg/injection, schedule: Q04DX003 (ip), vehicle: saline) 100 % of control; (dose: 0.39 mg/kg/injection, schedule: Q04DX003 (ip), vehicle: saline) 94 % of control; (dose: 0.78 mg/kg/injection, schedule: Q04DX003 (ip), vehicle: saline) 103 % of control and 88 % of control; (dose: 1.56 mg/kg/injection, schedule: Q04DX003 (ip), vehicle: saline) 88 % of control; (dose: 3.12 mg/kg/injection, schedule: Q04DX003 (ip), vehicle: saline) 99 % of control.
For the compound `COc1cccc2c1C(=O)c1c(O)c3c(c(O)c1C2=O)C[C@@](O)(/C(C)=N/NC(N)=S)C[C@@H]3OC1CC(N)C(O)C(C)O1` (stereo partly specified), the T/C was 108 % of control (dose: 3.13 mg/kg/injection, schedule: Q04DX003 (ip), vehicle: water); 109 % of control (dose: 6.25 mg/kg/injection, schedule: Q04DX003 (ip), vehicle: water); 112 % of control and 117 % of control (dose: 12.5 mg/kg/injection, schedule: Q04DX003 (ip), vehicle: water); 117 % of control and 123 % of control (dose: 25.0 mg/kg/injection, schedule: Q04DX003 (ip), vehicle: water); 117 % of control and 122 % of control (dose: 50.0 mg/kg/injection, schedule: Q04DX003 (ip), vehicle: water); 155 % of control (dose: 200.0 mg/kg/injection, schedule: Q04DX003 (ip), vehicle: water).
With `O=C1OCC2C(=O)OCC12` (stereo unspecified), the T/C runs as follows: (dose: 4.0 mg/kg/injection, schedule: Q01DX009 (ip), vehicle: saline with Tween-80) 113 % of control and 87 % of control; (dose: 8.0 mg/kg/injection, schedule: Q01DX009 (ip), vehicle: saline with Tween-80) 108 % of control and 109 % of control and 96 % of control; (dose: 16.0 mg/kg/injection, schedule: Q01DX009 (ip), vehicle: saline with Tween-80) 100 % of control and 109 % of control and 118 % of control; (dose: 32.0 mg/kg/injection, schedule: Q01DX009 (ip), vehicle: saline with Tween-80) 104 % of control and 124 % of control and 95 % of control; under setting [4], 99 % of control; (dose: 64.0 mg/kg/injection, schedule: Q01DX009 (ip), vehicle: saline with Tween-80) 100 % of control and 109 % of control and 124 % of control. For the same compound, the T/C is 102 % of control under setting [5]; 113 % of control (dose: 128.0 mg/kg/injection, schedule: Q01DX009 (ip), vehicle: saline with Tween-80); 105 % of control (dose: 200.0 mg/kg/injection, schedule: Q04DX003 (ip), vehicle: saline with Tween-80); 99 % of control (dose: 400.0 mg/kg/injection, schedule: Q04DX003 (ip), vehicle: saline with Tween-80).
For `CC(C)=CCC/C(C)=C/Cc1ccccc1`, the T/C was 101 % of control and 109 % of control under setting [11]; 103 % of control and 110 % of control under setting [12]; 109 % of control under setting [13].
Consider `O=C(Cc1cccc2c(=O)cc(-c3ccccc3)oc12)OCCO`, for which the T/C is 100 % of control under setting [1]; 103 % of control and 91 % of control under setting [2]; 100 % of control and 110 % of control under setting [14]; 120 % of control under setting [15].
With `CS(=O)(=O)CCN(N=O)C(=N)N[N+](=O)[O-]`, the T/C by setting is: (dose: 12.5 mg/kg/injection, schedule: Q04DX003 (ip), vehicle: saline with Tween-80) 118 % of control; (dose: 25.0 mg/kg/injection, schedule: Q04DX003 (ip), vehicle: saline with Tween-80) 118 % of control; under setting [11], 159 % of control; under setting [4], 118 % of control; (dose: 66.0 mg/kg/injection, schedule: Q04DX003 (ip), vehicle: saline with Tween-80) 154 % of control; (dose: 150.0 mg/kg/injection, schedule: Q04DX003 (ip), vehicle: saline with Tween-80) 154 % of control.
For the compound `Cc1nc(-c2nc(C(=O)NCCC[S+](C)C)cs2)cs1`, the T/C under setting [3] was 104 % of control.
In the case of `CCC(O)Cn1cnc2c(N)ncnc21` (stereo unspecified), the T/C under setting [2] is 99 % of control, the T/C under setting [14] was 99 % of control and the T/C under setting [15] is 100 % of control.
Take `O=C(Oc1ccccc1)N1CCCC(O)C1` (stereo unspecified): the T/C is 96 % of control under setting [8], 105 % of control under setting [9] and 100 % of control under setting [10].
As to `C[n+]1ccc(NN)cc1`, the T/C is 100 % of control under setting [2], 103 % of control under setting [14] and 101 % of control under setting [15].
